{"source": "patent US11549115B2", "about": "“Compositions and methods for regulated gene expression” (YALE UNIVERSITY, priority 2017, dated 2023)", "molecules": {"B1": {"name": "P1: Constitutive promoter of Bacteroides 16S rDNA (BT_r09 P1) (nucleic acid)", "DNA": "TTTTGCACCCGCTTTCCAAGAGAAGAAAGCCTTGTTAAATTGACTTAGTGTAAAAGCGCAGTACTGCTTGACCATAAGAACAAAAAAACTTCCGATAAAGTTTGGAAGATAAAGCTAAAAGTTCTTATCTTTGCAGTC", "modifications": "Constitutive promoter (last nucleotide is +1 TSS)"}, "B2": {"name": "ss-Bte1: Periplasmic localized T6SS effector from B. fragilis NCTC 9343 (protein)", "chain": "MKKILSLLVMAIVAIQFSFAGGKEIEIKKLPEFEAMVNAGNTTYTGLVEGIGYVYWTTETLYFIRTNPEQLWAIPKYQQIPFPYFQRKDAIIETKTLHTLHVLSKDELLKLDYDAYYAFYGIVEEMLKFIHRADAIKSYCEIPLPIIKSKGALKGNDARNGILSLGSQINDQIGAPLDAANMLMDNKHIGKIGDGLSLISIIDEVGNGEYWSAAGDILLFAAGKTKLSPYMTVISLGTWMYETDLMQWRLACINYSDYKKTLIKYRELQKKFESGDKSVEEKMNECHKILNSHYIEMQKNLGNLGVKF", "modifications": "Periplasmic-localized T6SS effector from B. fragilis NCTC 9343"}, "B3": {"name": "ss-Bfe1: Periplasmic localized T6SS effector from B. fragilis 638R (protein)", "chain": "MKKILSLLVMAIVAIQFSFAGAYRNEYKTQSEFNVILERGDDYEGFVVGLGYTWMSSKVILPVNQNGWSPISRNVSVDESFHTIVSERKYDTSQYAYEKSLMQDPTKVSEKVRDLIVKNKGNNITEINLGQEKQYLPTDNSQISIVITDTGSRYEIVISATDNSNGKTYEAKYESLTDLVSAVRDSGSLPAVNKEGPNLEGLAGLGFGIAETAGNWAEKIMDNRGAYLPKQMRFSPKTLPPIIRLPLGNYQVPAKGMSRVRGVGKALGWAGMVLTGYQVVRDVQNGRFAVAGTRIAVAGLAYGVTFIPYVGWVLAIGIGVADYTWGDEFYDWIDNRASELEMWWDGVRLAL", "modifications": "Periplasmic-localized T6SS effector from B. fragilis 638R"}}, "key": {"[1]": {"tested_on": "sialidases", "details": "cited from earlier work"}, "[2]": {"test": "Sialic acid in murine fecal samples (LC-MS/MS)", "format": "in vivo", "details": "Swiss Webster, mouse, faeces; oral gavage, gnotobiotic mice monocolonized with B. thetaiotaomicron BT0455", "experimental": "Groups of 6 germ-free Swiss Webster mice were orally gavaged with 1×10^9 CFU of the desired B. thetaiotaomicron strain. Fecal samples (˜100-200 mg) were collected daily for 12 days. aTC (100 μg/mL) was administered in drinking water for 12 hours after fecal collection on day 1. Fecal samples were homogenized in 1 mL of 1× tris-buffered saline (TBS) with a single 5 mm stainless steel bead using a bead beater (BioSpec Products) at 26° C. for 1 minute on the high setting, followed by vortexing at top speed for 8 minutes. Samples were then centrifuged at 500×g for 1 minute to pellet fibrous and insoluble matter. […]\nFor sialic acid measurements, 5 μL of internal standard solution (50 μM 1,2,3-^13C3 sialic acid in H2O) were added to each sample (20 μL) and proteins were precipitated through addition of 100 μL organic solvents at −20° C. […] The MassHunter Quantitative Analysis Software (Agilent, version 7.0) was used for peak integration with the most abundant ion fragment as quantifier and the others as qualifiers of the peak. Quantification was based on calibration curves using commercially available sialic acid and the signal intensity of the internal standard spiked into each sample."}, "[3]": {"tested_on": "B. thetaiotaomicron", "test": "Polymyxin B susceptibility (MIC, E-test strips)", "format": "cell-based, Bacteroides thetaiotaomicron", "experimental": "Minimum inhibitory concentrations (MICs) were determined on solid medium using E-test strips (Biomerieux) as previously described (Cullen, T. W. et al., 2015, Science, 347:170-175), except that cultures were initially grown for 18 hours in liquid medium. Cultures were adjusted to OD600˜1.0 and 100 μL of cell suspension was then spread onto BHI-blood agar plates. Surface liquid was allowed to dry in a fume hood for 10 minutes, followed by application of the E-test strip to the agar surface."}, "[4]": {"tested_on": "B. thetaiotaomicron", "details": "cited from earlier work"}, "[5]": {"tested_on": "NanoLuc luciferase reporter in B. thetaiotaomicron", "test": "NanoLuc luciferase assay from in vitro samples (promoter activity)", "format": "cell-based, Bacteroides thetaiotaomicron", "details": "Bt::tetR, no aTC", "experimental": "The NanoLuc luciferase assay was performed as described (Mimee, M. et al., 2015, Cell Syst., 1:62-71), with the following modifications. All strains were first grown for 18 hours in TYG medium or Gut Microbiota Medium and diluted 250-fold into fresh medium in appropriate conditions (with or without aTC). Cultures were grown to mid exponential phase (OD600 0.3-0.4) and colony forming units (CFU) were measured by dilution plating. 500 μL of the culture was centrifuged at 21,130×g for 3 minutes, resuspended in 50 μL 1× BugBuster (Novagen) in 1×PBS and lysed by one cycle of freeze-thaw and nutation at 26° C. for 10 minutes. Lysates were cleared of cellular debris by centrifugation at 21,130×g for 10 minutes at 4° C. 10 μL of the supernatant was mixed with an equal volume of NanoLuc Reaction Buffer using the Nano-Glo Luciferase Assay System (Promega) and incubated for 5 minutes at 26° C. to induce luminescence production. Relative Light Units (RLU) were measured using a fluorescence plate reader (BioTek Synergy H1) with an integration time of 1 second at a gain setting of 100. Luminescence values were normalized to colony forming units (CFUs) because experimental conditions (e.g., growth medium, antibiotics, aTC, heterologous gene expression) affect the correlation between CFUs and OD600 in Bacteroides."}, "[6]": {"tested_on": "B. thetaiotaomicron", "test": "aTC-induced expression of periplasm-targeted T6SS effectors (viability, culture density)", "format": "cell-based, Bacteroides thetaiotaomicron", "details": "under P1TDP in Bt::tetR, aTC added", "from_the_text": "To direct Bte1 and Bfe1 to the periplasm upon expression in B. thetaiotaomicron, the genes encoding each effector were first PCR amplified from genomic DNA purified from B. fragilis NCTC 9343 and B. fragilis 638R, respectively, using the CTAB method. A periplasmic localization signal was searched for that would be cleaved after translocation to prevent steric hindrance of the effector. To identify proteins that encode N-terminal B. thetaiotaomicron periplasmic localization signals that are post-translationally cleaved after protein translocation, the proteome of the Bacteroides thetaiotaomicron VPI-5482 chromosome was searched for signal peptides (PTM/Processing; Molecule Processing, Signal Peptide) using UniProt (UniProt Consortium, 2015, Nucleic Acids Research, 43:D204-D212). To exclude membrane proteins that potentially encode an uncleaved signal peptide, the search was refined by an additional query for the term “periplasmic” under Protein name. To identify a short periplasmic signal, the maximum length for the signal peptide was set at 20 amino acids. […] Therefore, the B. fragilis effectors were fused at the 5′ end (minus the ATG start codon) to the first 63 base pairs (encoding the first 21 amino acids) of the BT4676 open reading frame (see Table 2 for sequence) in order to localize them to the periplasm after expression in B. thetaiotaomicron."}}, "data": [{"molecule": "CC(=O)N[C@H]1[C@H]([C@H](O)[C@H](O)CO)O[C@@](Oc2ccc([N+](=O)[O-])cc2)(C(=O)O)C[C@@H]1O", "note": "[pNP-SA, 2-O-(p-Nitrophenyl)-t-D-N-acetylneuraminic acid]", "values": [{"measurement": "Km", "setting": "[1]", "result": 110, "unit": "µM"}]}, {"molecule": "CC(=O)N[C@H]1[C@H]([C@H](O)[C@H](O)CO)OC(O)(C(=O)O)C[C@@H]1O", "note": "(stereo partly shown) [sialic acid, N-acetylneuraminic acid]", "values": [{"measurement": "half-life", "setting": "[2]", "result": "~9", "unit": "h"}]}, {"molecule": "polymixin B [PMB]", "values": [{"measurement": "PMB MIC", "setting": "[3]; Bt::tetR lpxF carrying P1TDP-lpxF fusion, TetR repressed, no aTC", "result": "< 0.064", "unit": "µg/mL"}, {"measurement": "reduction of PMB MIC by TetR repression of P1TDP-lpxF", "setting": "[3]; Bt::tetR lpxF, no aTC", "result": "over 10,000 fold"}, {"measurement": "PMB MIC", "setting": "[3]; wildtype B. thetaiotaomicron", "result": "> 1024", "unit": "µg/mL"}, {"measurement": "reduction of PMB resistance by deletion of lpxF", "setting": "[4]", "result": "four orders of magnitude"}]}, {"molecule": "B1", "values": [{"measurement": "effect of TetR on promoter activity", "setting": "[5]", "result": "no effect"}, {"measurement": "PMB resistance of B. thetaiotaomicron lpxF mutant expressing lpxF from the promoter", "setting": "[3]; no TetR", "result": "increases PMB resistance to wildtype levels"}]}, {"molecule": "B2", "values": [{"measurement": "toxicity on expression in B. thetaiotaomicron", "setting": "[6]", "result": "highly toxic"}]}, {"molecule": "B3", "values": [{"measurement": "toxicity on expression in B. thetaiotaomicron", "setting": "[6]", "result": "highly toxic"}]}]}
